Data on seven molecules can be found in patent US11554123B2, “Compositions and methods for reactivating latent HIV-1 infections” (Saint Joseph's University, priority 2017, dated 2023).

What all share (format): cell-based
Series [1] relates to latent HIV-1 in JLat10.6 cell line model of T-cell latency. Conditions: for maximal effect in dose dependent reactivation (in words): compared with Alprazolam; for percentage of GFP+ live cells: 10 μM benzodiazepine used independently, 48 h, FIG. 1A, DMSO background 2.8%; for activation compared with the other tested benzodiazepines (in words): in the presence or absence of SAHA.

Series [2] has as its target T1, HIV-1 Tat (Human immunodeficiency virus type 1 group M subtype B, UniProt P04608).
T1 construct: expressed in transfected cells; host or cells: TZMbl cells
Conditions: TZMbl cells transfected with Tat plasmid, 24 h treatment, FIG. 3E.

Series [3] has as its system HIV-1 Gag mRNA. Description: HIV-1 Gag mRNA (RTqPCR) in ex vivo treated PBMCs from HIV-1 patients. Conditions: 10 μm Alprazolam, 24 h. As to the method:
To evaluate the ability of Alprazolam to reactivate latent cells from patients we obtained PBMCs from two HIV-1 patients who had been suppressed on therapy for greater than 6 months. 10×10^6 PBMCs were divided between three conditions: DMSO control, 50 μM Ro5-3335 and 10 μm Alprazolam. PBMCs were cultured in RPMI with 10% FBS and the given drugs for twenty-four hours. RNA was extracted from the cells and used for RTqPCR to detect HIV-1 Gag mRNA. RNA was extracted using Trizol reagent (Invitrogen) following manufacturer's protocol. Following reverse transcription, the samples were diluted 1:50, and 2.5 microliters were used for quantitative PCR in a BioRad CFX384 qPCR machine. All mRNA analyses were normalized to GAPDH. Nucleic acid amplification was tracked by SYBR Green method.
In order to evaluate the ability of Alprazolam to reactivate latent cells from patients, PBMCs were obtained from two HIV-1 patients who had been suppressed on therapy for greater than 6 months. 10×10^6 PBMCs were divided between three conditions: DMSO control, 50 μM Ro5-3335 and 10 μm Alprazolam. PBMCs were cultured in RPMI with 10% FBS and the given drugs for twenty-four hours. RNA was extracted from the cells and used for RTqPCR to detected HIV-1 Gag mRNA (FIG. 6). […] Treatment with Alprazolam produced detectable reactivation of HIV-1 transcripts.
For orientation: Quantitative PCR measures a nucleic acid by following its amplification.

Series [4] relates to primary peripheral blood mononuclear cells (PBMCs) from healthy donors. As to the kind of experiment: T cell activation in primary PBMCs (CD69 flow cytometry). The following applies: 10 μM Alprazolam in combination with 0.5 μM SAHA, 24 h. As to the method: To investigate whether alprazolam is specifically activating HIV-1 or having general effect on T cell activation (CD4 and CD8), primary PBMC from two healthy donors were treated with 10 μM, 50 μM Alprazolam or Ro5-3335 respectively alone or in combination with 0.5 μM SAHA. Twenty-four hours after treatment, cells were stained using Zombie yellow live and dead staining and then stained for CD3, CD8, CD4, CD69, and then fixed for analysis by flow cytometry. AntiCD3/CD28 and PHA were included as a positive control. Samples were analyzed on a CYTEK® DxP12 flow cytometer followed by analysis using FLOWJO® v10 software (Treestar)
In order to investigate whether alprazolam was specifically activating HIV-1 or having a general effect on T cell activation (CD4 and CD8), primary peripheral blood mononuclear cells (PBMCs) from two healthy donors were treated with 10 μM Alprazolam or 50 μM Ro5-3335, both alone or in combination with 0.5 μM SAHA. Twenty-four hours after treatment, cells were stained using Zombie yellow live and dead staining, then stained for CD3, CD8, CD4, CD69, and then fixed for analysis by flow cytometry. AntiCD3/CD28 and PHA were included as a positive control (FIG. 2B).

Series [5] relates to CBP/P300. Description: ChIP for CBP/P300 at integrated HIV-1 LTR in TZMbl cells. As to the method: (§1) TZMbl cells were cultured with benzodiazepines for 48 hours before chromatin immunoprecipitation analysis. Following treatment, cells were processed for chromatin immunoprecipitation using the Pierce Agarose ChIP Kit (Fisher Scientific) using commercially available antibodies against histone H3 lysine 9 acetylation, STATS, and CBP/P300. Degree of occupancy at the integrated HIV-1 LTR was determined by qPCR using HIV-1 LTR specific primers run on a BioRad CFX384 qPCR machine using Sybr Green methodology.
Therefore, ChIP was performed for STATS to determine if benzodiazepine treatment might increase the recruitment of STATS above SAHA treatment (FIG. 3C). All three benzodiazepines were capable of driving recruitment of STATS to the promoter, and further recruitment was seen when used in combination with SAHA. STATS is capable of recruiting the histone acetyl transferase CBP/P300 that acetylates histone 3 at lysine 27, a residue that is not affected by SAHA. […] Addition of both Ro5-3335 and Alprazolam induced recruitment of CBP/P300 to the HIV-1 LTR (by 3 and 7 fold respectively).

Series [6] concerns IL-17 promoter. Description: IL-17 promoter luciferase reporter assay in 293T cells. Background: In a reporter assay the amount or activity of a reporter protein is the signal.
Series [7] relates to H3K9ac at the integrated HIV-1 long terminal repeat (LTR). Description: ChIP for H3K9ac at integrated HIV-1 LTR in TZMbl cells. Conditions: 48 h; for H3K9ac at the HIV-1 LTR versus SAHA alone (in words): 50 μM Ro5-3335, 10 μM Alprazolam or 10 μM Clonazepam with 5 μM SAHA. As to the method:
as §1
In order to test the changes driven by these compounds, chromatin immunoprecipitation (ChIP) assays were performed to examine the presence of various proteins and modifications at the integrated HIV-1 long terminal repeat (LTR). TZMbl cells were treated for 48 hours with 50 μM Ro5-3335, 10 μM Alprazolam and 10 μM Clonazepam with or without 5 μM SAHA Acetylation of histone 3 at lysine 9 (H3K9ac) was first examined (FIG. 3B). […] None of the benzodiazepines were able to alter H3K9ac when used alone.

Series [8] has as its system acetylated histone 3 at lysine 9 (H3K9). As to the kind of experiment: NUCLEO-M imaging of acetylated H3K9 in isolated nuclei. Conditions: SAHA alone, FIG. 3A. On the procedure:
Transcriptionally competent nuclei were isolated from TZM-bl cells by chemical lysis and stored following manufacturer's recommendations (Nuclei Isolation Kit: Nuclei EZ Prep, Sigma-Aldrich, Nuc-101). Nuclei were stained for 1 hour on ice in 5% FBS/PBS solution containing primary antibodies. Nuclei were washed twice in 5% FBS/PBS and stained for 1 hour on ice with appropriate secondary antibodies conjugated with fluorescent dyes. Nuclei were finally washed twice in 5% FBS/PBS and resuspended in the storage buffer provided by the kit (Nuclei Isolation Kit: Nuclei EZ Prep, Sigma-Aldrich, Nuc-101).
Isolated nuclei and TZM-bl cells seeded on a chambered coverglass (NUNC® LAB-TEK® Chambered Coverglass, Thermo Fisher) were imaged with a Zeiss AXIOVERT® microscope with a Zeiss alpha PLAN-FLUAR® 100×, 1.45 N.A., oil objective and a spinning disk confocal scan head (Yokogawa CSU-X1). A 488 nm laser source with 488-25 nm, 617-73 nm and 692-40 nm emission filters were used for the illumination of Alexa Fluor® 488 dye (Thermo Fisher) or SYTO® RNA SELECT® Green Fluorescent cell Stain (Thermo Fisher), and PerCP-Cy5.5 (BD Biosciences) respectively. A 561 nm laser source with 568-25 nm emission filters was used for illumination of ALEXA FLUOR® 555 dye (Thermo Fisher). Digital images were captured sequentially by a high-speed EM-CCD camera with 100 ms exposure time (Photometrics EVOLVE® 512). […]

Series [9] deals with JLat10.6 cells. Description: JLat10.6 cell viability (live/dead staining). Conditions: 48 h, DMSO control 97%. On the procedure: […] Forty-eight hours after treatment, cells were stained for live dead staining using Live/Dead Red stain (BD Biosciences). Viability was determined by fluorescent detection of the live dead stain using a CYTEK® DxP12 flow cytometer. Comparison to untreated cells was used to determine degree of cell viability.
To examine safety of the treatment and effect on T-cell activation, Jlat10.6 cells were treated with different benzodiazepines with and without SAHA. Forty-eight hours after incubation, cells were harvested and stained with red live/dead staining according to the manufacturer protocol (LIVE/DEAD® Fixable Red Dead Cell Stain Kit, ThermoFisher Scientific) (FIG. 2A). Trichostatin A, used as a positive control induced toxicity (68% viable).

Molecules are shown by their SMILES. Entries after “also recorded” stand apart in the source; their conditions may differ. Where two headings read alike, the source gives them in different places.

T1 sequence (P04608 whole entry): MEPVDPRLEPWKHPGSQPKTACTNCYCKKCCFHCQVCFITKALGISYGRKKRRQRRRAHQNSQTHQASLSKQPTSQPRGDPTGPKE

Regarding `O=C(O)C1N=C(c2ccccc2)c2cc(Cl)ccc2NC1=O` (stereo not shown) [Clorazepate], the “maximal effect in dose dependent reactivation (in words)” value in [1] (alone, FIG. 1B) is given as “smaller maximal effect, but at lower doses”. The “luciferase expression driven by Tat (in words)” value in series [2] was “additional activation beyond what was seen with Tat alone”.
For the molecule `Cc1nnc2n1-c1ccc(Cl)cc1C(c1ccccc1)=NC2` [Alprazolam], the “increase in HIV-1 Gag RNA” value in series [3] (Patient 1, versus DMSO control) amounted to 4.6 fold; in series [3] (Patient 2, versus DMSO control), 3.3 fold. For the same molecule, the “T cell activation (in words)” value in series [4] is “did not induce any significant T cell activation”; in series [4] (listed as alprazolam), “did not induce significant T-cell activation”. Moreover, in series [5] (addition of 50 μM Ro5-3335 or 10 μM Alprazolam, 48 h, FIG. 3D), the “recruitment of CBP/P300 to the HIV-1 LTR” value stood at 7 fold. The “percentage of GFP+ live cells” value in series [1] amounted to 20.3%. Further, the “GFP+ cells, dose dependent reactivation” value in series [1] (alone, at 10 μM, FIG. 1B, DMSO control 2.8%) was found to be 25.5%. The “activation compared with the other tested benzodiazepines (in words)” value in series [1] was “maximum activation”. Besides, the “IL-17 promoter luciferase activity (in words)” value is listed as “increased luciferase activity” in series [6] (RUNX1 over expression) and “no effect on luciferase activity” in series [6] (in the presence of SAHA). Moreover, the “IL-17 promoter activity (in words)” value in series [6] (absence of SAHA or RUNX1 over expression, lowest dose 0.1 μM) was “statistically significant suppression”. Further, the “luciferase expression driven by Tat (in words)” value in [2] is “additional activation beyond what was seen with Tat alone”. In addition, the “H3K9ac at the HIV-1 LTR versus SAHA alone (in words)” value in [7] is reported as “further increased acetylation over SAHA alone”.
`O=C1CN=C(c2ccccc2Cl)c2cc([N+](=O)[O-])ccc2N1` [Clonazepam]: the “maximal effect in dose dependent reactivation (in words)” value in [1] (alone, FIG. 1B) is “smaller maximal effect, but at lower doses”. Moreover, in series [7], the “H3K9ac at the HIV-1 LTR versus SAHA alone (in words)” value was “potentiation was not seen”.
As for `O=C(CCCCCCC(=O)Nc1ccccc1)NO` [SAHA, N-hydroxy-N′-phenyloctanediamide], the “acetylated H3K9 in the nuclei (in words)” value in series [8] is listed as “increase in acetylated H3K9; also recorded: increase in acetylated histone 3 at lysine 9”. Further, the viability in series [9] (0.5 μM SAHA) amounted to 94.6%. Also, the “recruitment of CBP/P300 (in words)” value in series [5] (SAHA alone) is listed as “no increase in recruitment”. Besides, the “GFP+ cells” value in series [1] (0.5 uM SAHA alone, FIG. 1B) is recorded as 5.9%; in series [1] (SAHA alone, FIG. 1A screen, DMSO 2.8%), 6.2%. Further, the “IL-17 driven luciferase expression (in words)” value in series [6] (SAHA treatment compared to control) is reported as “increased IL-17 driven luciferase expression”. The “occupancy of H3K9ac at the promoter (in words)” value in series [7] (5 μM SAHA alone, compared to DMSO control) is listed as “increased the occupancy of H3K9ac”.
Take `CN1C(=O)CN=C(c2ccccc2)c2cc(Cl)ccc21` [Diazepam]: in series [1], the “percentage of GFP+ live cells” value was found to be 12.4% and the “activation compared with the other tested benzodiazepines (in words)” value was “maximum activation”.
As for `CN1C(=O)CN=C(c2ccccc2F)c2cc([N+](=O)[O-])ccc21` [Flunitrazepam], the “percentage of GFP+ live cells” value in series [1] is listed as 9.1%.
As to `CC(/C=C/C(=O)NO)=C\[C@@H](C)C(=O)c1ccc(N(C)C)cc1` [Trichostatin A, [R-(E,E)]-7-[4-(Dimethylamino)phenyl]-N-hydroxy-4,6-dimethyl-7-oxo-2,4-heptadienamide], the viable cells in [9] (positive control) was found to be 68%.

As usually defined, the viability is the share of living cells, or the viability signal relative to a control. Low values mean more harm to the cells, high ones less harm to the cells.
